Reference: patent publication US12016355B2, “Stevia composition” (PURECIRCLE SDN BHD, priority 2011, dated 2024)
Read-outs that look alike come from different tables or passages of the source.

Assays:
[1] = type: physicochemical
Method: Hereinafter, unless specified otherwise the solubility of material is determined in reverse osmosis (RO) water at room temperature. Where the solubility is expressed as “%” it to be understood as number of grams of material soluble in 100 grams of solvent.
The temperature was increased at 1° C. per minute to 121° C. The mixture was maintained at 121° C. for 1 hour and then the temperature was decreased to 80° C., at 1° C. per minute, and the obtained solution was spray dried using YC-015 laboratory spray drier (Shanghai Pilotech Instrument & Equipment Co. Ltd., China) operating at 175° C. inlet and 100° C. outlet temperature. Solution was maintained at 80° C. to prevent premature crystallization.
Solubility were evaluated for Reb A, Reb B, mechanical blends of Reb A and Reb B powders of different ratios, and mixtures of Reb A and Reb B prepared according to process described in EXAMPLE 1.

[2] = Sweetness factor (SF) determination by trained panel in water; conditions: for Calculated SF (sweetness factor) / Usage Level, % (concentration corresponding to 5% sucrose equivalent sweetness): in water, 5% SE
Method: The sweetness factors for different sweetener from all major groups were measured by tasting several concentrations of each sweetener in water by trained panel. From the sensory test at a, the concentration (%) that corresponds to the 5% sucrose equivalent (SE) sweetness were estimated and listed in Table 2. The sweetness equivalent (SE) of high intensity sweeteners (HIS) varies according to the target sugar equivalent sweetness levels, that are tested as shown in Table 3.

[3] = Chang and Cook 1983; cited from earlier work
[4] = Trained panel evaluation, no fat (NF) yogurt; conditions: formulas of Table 6
Method: Samples were prepared according to formulas outlined below in Table 6. Samples included a full sugar reference, an aspartame reference, a Reb A control and several test samples with a Reb A/Reb B blends. The samples were evaluated by a trained panel and screened for overall sweetness, bitterness, astringency, mouth coating, flavor intensity, acidity/tartness, sweet lingering and bitter lingering.

[5] = cited from earlier work
[6] = Trained panel evaluation, chocolate milk; conditions: sugar-equivalent sweetness around 5.5%
Method: A series of samples were prepared to having sugar-equivalent sweetness around 5.5%. The control sample was sweetened with 5.5% sugar the test samples were sweetened with different ratios of Reb A/Reb as shown in Table 7 below. The samples were evaluated by a trained panel and screened for overall sweetness, bitterness, astringency, mouth coating, flavor intensity, acidity/tartness, sweet lingering and bitter lingering.

[7] = room temperature; reported values; cited from earlier work
[8] = Sugar equivalent sweetness of sweetener/Reb B combinations in plain water, trained panel; conditions: Reb B at 50, 150 and 300 ppm with sweeteners of Table 2
Method: In one embodiment, Reb B was combined (at 50, 150 and 300 ppm) with several sweeteners listed in Table 2 to make solutions in plain water. Some of the sweeteners were tested at two different concentrations to obtain around 2% sugar equivalent sweetness without any Reb B. A trained panel conducted sensory tests to determine the effect of the addition of different amounts of Reb B to each sweetener on overall sweetness quality and intensity as shown in Table 4.

[9] = Descriptive sensory evaluation, lime-tequila margarita alcoholic beverage; conditions: FOS 21% + Reb B 150 ppm, about 10% alcohol
Method: The Fructo-oligosaccharide (FOS) sweetener and the steviol glycosides compositions (described in EXAMPLE 12) were used for making an alcoholic beverage—lime-tequila margarita drink using Margarita pre-mix from FIS (Flavor International Systems), recommended usage was 0.4%. Prepared Lime Tequila Margarita blank containing about 10% alcohol, no sugar added. To sweeten the beverage, used FOS (21%), FOS+Reb B (150 ppm), and FOS+Reb A/Reb B (68 ppm). Descriptive Sensory evaluation was conducted with 8-13 panelists.

[10] = Descriptive sensory evaluation, peppermint mouthwash, 8 panelists; conditions: Maltitol 6.44% + Reb B 50 or 150 ppm
Method: A commercial unsweetened (no sugar or sweetener) peppermint mouthwash product (Brand: The Natural Dentist) was used to determine the effect of Reb B with other sweetener, as example maltitol, a sugar alcohol on the sensory profile of mouthwash. Mouthwash samples were sweetened with Maltitol (6.44%), Maltitol+Reb B (50 ppm), Maltitol+Reb B (150 ppm). Descriptive sensory evaluation was conducted with 8 panelists. They evaluated several attributes including sweet onset, total sweetness, bitterness, rounded sweetness, flavor intensity, astringency, mouth coating, sweet lingering, bitter lingering, aftertaste mouth coating, tartness.

[11] = Descriptive sensory evaluation of sweetener solutions in water by trained panel
Method: In another embodiment, Stevia sweetener (Reb A, Reb B or blends thereof) solutions were made by completely dissolving Stevia into distilled water. Solutions were tasted and evaluated by a trained panel. […] All solutions were made with different mass ratio of Reb A and Reb Bas shown in FIG. 3 to get the 7% sweetness equivalent. Reb B a mount varied between 20 mg/kg to 150 mg/kg.
All sensory attributes were rated by trained panelists on a scale of zero (0) to ten (10). Samples were presented in a randomized fashion and labeled with three-digit codes.
Sweet Onset—This attribute describes the time at which panelists perceived sweetness upon placing the sample in the mouth. A score of zero indicates immediate identification of sweetness, whereas a score of ten indicates a long delay in the time that sweetness was perceived.
Total Sweetness—This attribute describes the highest intensity of sweetness perceived during tasting. A score of zero indicates no sweetness, while a score of ten indicates very high sweetness.
Bitterness—This attribute describes the highest intensity of bitterness perceived during tasting. A score of zero indicates no bitterness, while a score of ten indicates very high bitterness.
Rounded Sweetness—This attribute describes the duration of sweetness while samples are in the mouth.
Flavor Intensity—This attribute describes the highest intensity of flavor perceived during tasting. A score of zero indicates no flavor, while a score of ten indicates very high flavor.
Astringency—This attribute describes the highest intensity of astringency perceived during tasting. A score of zero indicates no astringency, while a score of ten indicates very high astringency.
Mouth Coating—This attribute describes the highest intensity of sweetness coating perceived while samples are in the mouth.
Sweet Lingering—This attribute describes the highest intensity of sweetness perceived after the sample has been swallowed.
Bitter Lingering—This attribute describes the highest intensity of bitterness perceived after the sample has been swallowed.
Aftertaste Mouth Coating—This attribute describes the highest intensity of sweetness coating perceived after the sample has been swallowed.
Tartness—This attribute describes the highest intensity of tartness perceived during tasting. A score of zero indicates no tartness, while a score of ten indicates very high tartness.
Cooling Sensation—This attribute describes the highest intensity of cooling sensation perceived during tasting. A score of zero indicates no cooling sensation, while a score of ten indicates very high cooling sensation.
Water solution of mogroside (100 ppm) sweetener was tested against solutions made with mogroside (100 ppm)+Reb B (300 ppm) and mogroside (100 ppm)+Reb A/B (Example 3) blend (128 ppm) by a 13 members trained panel.
Water solution of sucralose (40 ppm) was tested against solutions made with sucralose (40 ppm)+Reb B (150 ppm) and sucralose (40 ppm)+Reb A/Reb B (Example 3) blend (68 ppm) by a 13 members trained panel.
Water solution of erythritol (5%) was tested against solutions made with erythritol (5%)+Reb B (50 ppm) and erythritol (5%)+Reb A/Reb B (Example 3) blend (22 ppm) by a 13 members trained panel.
Fructo-oligosaccharide or FOS solution (21%) was tested against solutions made with FOS (21%)+Reb B (150 ppm) and FOS (21%)+Reb A/Reb B (Example 3) blend (68 ppm) by a 13 members trained panel.

[12] = sensory evaluations, Crammer and Ikan 1986

Structure (SMILES) | Sweetness factor ([2]; SE level 5.0%) | Sweetness factor ([2]; SE level 7.5%) | Sweetness factor ([2]; SE level 10.0%) | Sweetness factor ([2]; SE level […]) | Calculated SF (sweetness factor) [2] | Usage Level, % (concentration corresponding to 5% sucrose equivalent sweetness) [2] | stability in carbonated beverages [3] | times sweeter than sucrose [5, 12] | water solubility [7] | further results
C=C1C[C@@]23CC[C@H]4[C@@](C)(CCC[C@@]4(C)C(=O)O[C@@H]4O[C@H](CO)[C@@H](O)[C@H](O)[C@H]4O)[C@@H]2CC[C@]1(O[C@@H]1O[C@H](CO)[C@@H](O)[C@H](O[C@@H]2O[C@H](CO)[C@@H](O)[C@H](O)[C@H]2O)[C@H]1O[C@@H]1O[C@H](CO)[C@@H](O)[C@H](O)[C@H]1O)C3 [Reb A, Rebaudioside A] | 290 | 250 | 200 | 400 | 291 | 0.0172% | heat and pH stability | 350-450 times | 0.8% | water solubility [1]: around 1%; acidity [4]: enhanced the acidity of the yogurt; bitterness [4]: bitterness at the end; sensory attributes among major steviol glycosides ([5]; Tanaka 1987, Phillips 1989): the least astringent, the least bitter, and the least persistent aftertaste; sweetness and flavor profile [6]: separate peaks for sweetness, dairy notes, and cocoa notes
C=C1C[C@@]23CC[C@H]4[C@@](C)(CCC[C@@]4(C)C(=O)O)[C@@H]2CC[C@]1(O[C@@H]1O[C@H](CO)[C@@H](O)[C@H](O[C@@H]2O[C@H](CO)[C@@H](O)[C@H](O)[C@H]2O)[C@H]1O[C@@H]1O[C@H](CO)[C@@H](O)[C@H](O)[C@H]1O)C3 [Reb B, Rebaudioside B] | 126 | 95 | 59 | 146 | 126 | 0.0397% |  | 300-350 times | about 0.1% | Solubility in water [1]: No*; effect of addition of Reb B on overall sweetness quality and intensity [8]: generally increased upfront sweetness, made the sweetness profile rounded and contributed to sweetness lingering at a higher level; flavor intensity, bitter lingering and tartness [9]: decrease in flavor intensity, bitter lingering, and tartness; sweetness profile of the alcoholic beverage [9]: sweetness onset was earlier in the profile, and there was an increase in total sweetness and the sweetness profile was more rounded; all other sensory attributes [10]: generally unchanged; sweetness onset and total sweetness [10]: created an earlier sweetness onset, and higher total sweetness; sweetness and sweetness profile versus FOS solution ([11]; FOS 21% + Reb B 150 ppm or Reb A/Reb B 68 ppm): significantly higher sweetness and made the sweetness profile rounded; onset of sweetness, peak sweetness and sweetness lingering versus erythritol solution ([11]; water, erythritol 5% + Reb B 50 ppm): improved the onset of sweetness and the peak sweetness without increasing the sweetness lingering; taste (sweetness, bitterness, cooling effect) versus erythritol solution ([11]; water, erythritol 5% + Reb B 50 ppm or Reb A/Reb B 22 ppm): improved the taste of erythritol sample significantly by increasing the sweetness and reducing the bitterness and cooling effect; taste attributes versus mogroside solution ([11]; water, mogroside 100 ppm + Reb B 300 ppm or Reb A/B 128 ppm): increases sweetness level significantly, improves the onset of sweetness and decreases the bitterness; onset of sweetness and off taste versus sucralose solution ([11]; water, sucralose 40 ppm + Reb B 150 ppm): improved the onset of sweetness and decreased the off taste slightly; sweetness level versus sucralose solution ([11]; water, sucralose 40 ppm + Reb B 150 ppm or Reb A/Reb B 68 ppm): significantly higher sweetness level
C=C1C[C@@]23CC[C@H]4[C@@](C)(CCC[C@@]4(C)C(=O)O[C@@H]4O[C@H](CO)[C@@H](O)[C@H](O)[C@H]4O)[C@@H]2CC[C@]1(O[C@@H]1O[C@H](CO)[C@@H](O)[C@H](O)[C@H]1O[C@@H]1O[C@H](CO)[C@@H](O)[C@H](O)[C@H]1O)C3 [stevioside] |  |  |  |  |  |  | heat and pH stability |  |  | times sweeter than sucrose ([5]; as usually found, literature): 110-270 times
